Results published in patent US12281086B2, “2-aminothiazoles derivatives and method of preparation thereof using super-paramagnetic iron oxide nanoparticles (SPIONs)” (Imam Abdulrahman Bin Faisal University, priority 2023, dated 2025).

Tests used:
Assay type in all cases: cell-based
P. aeruginosa = assay: Anti-microbial activity, inhibition zone, P. aeruginosa; on Inhibition Zone(mm ± SD) P. aeruginosa: test concentration or dose not given here
Experimental: (§1) All synthesized compounds were tested for their antimicrobial activities against five types of microorganisms, including gram-negative and positive bacteria and fungi. The gram-negative bacteria include E. coli and P. aeruginosa, while B. subtilis and S. aureus represented the gram-positive bacteria. C. albicans was the fungus used in the screening. […] In addition, the antibacterial activity of the Schiff bases seems to be insensitive to the position and the nature of the substituents. […] For the gram-positive bacteria, the antibacterial activity was more significant in Schiff base derivatives when compared to azo derivatives.

C. albicans = assay: Anti-microbial (antifungal) activity, inhibition zone, C. albicans; further: test concentration or dose not given here
Experimental: as §1

B. subtilis = assay: Anti-microbial activity, inhibition zone, B. subtilis; on Inhibition Zone(mm ± SD) Bacillus: test concentration or dose not given here; conditions: for Inhibition Zone(mm ± SD) Bacillus: Bacillus (B. subtilis)
Experimental: as §1

E. coli = assay: Anti-microbial activity, inhibition zone, E. coli; on Inhibition Zone(mm ± SD) E. coli: test concentration or dose not given here
Experimental: as §1

S. aureus = assay: Anti-microbial activity, inhibition zone, S. aureus; on Inhibition Zone(mm ± SD) S. aureus: test concentration or dose not given here
Experimental: as §1

| Structure (SMILES) | Inhibition Zone(mm ± SD) P. aeruginosa (P. aeruginosa) | Inhibition Zone(mm ± SD) Candida (C. albicans) | Inhibition Zone(mm ± SD) Bacillus (B. subtilis) | Inhibition Zone(mm ± SD) E. coli (E. coli) [mm] | Inhibition Zone(mm ± SD) S. aureus (S. aureus) | growth inhibition against P. aeruginosa (in words) (P. aeruginosa) | antibacterial activity against E. coli (in words) (E. coli) | activity against B. subtilis (in words) (B. subtilis) | activity against S. aureus (in words) (S. aureus) |
| --- | --- | --- | --- | --- | --- | --- | --- | --- | --- |
| Nc1nccs1 [Compound 1, 2-aminothiazole] | Nil | Nil | Nil | 9.8 ± 0.2 | Nil |  |  |  |  |
| ClN=Nc1nccs1 [Compound 2, 2-(Chlorodiazenyl)Thiazole] | Nil | Nil | Nil | 10.15 ± 0.4 | Nil |  |  |  |  |
| CC1=NNC(=O)C1N=Nc1nccs1 (stereo not drawn) [Compound 6, 3-methyl-4-(thiazol-2-yldiazenyl)-1H-pyrazol-5(4H)-one] | 16 mm | Nil | Nil | 22 ± 0.8 | Nil | showed growth inhibition | most potent antibacterial activity |  |  |
| NC1=NNC(=O)C1N=Nc1nccs1 (stereo not drawn) [Compound 7, 3-amino-4-(thiazol-2-yldiazenyl)-1H-pyrazol-5(4H)-one] | Nil | 12 ± 0 mm | 8.6 ± 0.4 mm | 16 ± 1.4 | 12.3 ± 0.9 mm |  |  | showed activity | showed activity |
| CC1=NN=C(C)C1N=Nc1nccs1 [Compound 8, (3,5-Dimethyl-4H-pyrazol-4-yl)-thiazol-2-yl-diazene] | Nil | Nil | 10.6 ± 0.4 mm | 20.6 ± 0.9 | Nil |  |  |  |  |
| C(=Nc1nccs1)c1ccccc1 [Compound 9, N-(benzylidene)thiazol-2-amine] | 8 ± 0 mm | Nil | Nil | 8.8 ± 0.4 | Nil | showed growth inhibition | least potent |  |  |
| Clc1ccc(C=Nc2nccs2)cc1 [Compound 10, N-(4-chlorobenzylidene)thiazol-2-amine] | Nil | Nil | Nil | 14.3 ± 0.4 | Nil |  |  |  |  |
| O=[N+]([O-])c1ccccc1C=Nc1nccs1 [Compound 11, N-(2-nitrobenzylidene)thiazol-2-amine] | 11.8 ± 0.6 mm | Nil | 8.6 ± 0.9 mm | 12.3 ± 0.9 | 10.6 ± 0.4 mm | showed growth inhibition |  | exhibited activities | exhibited activities |
| Oc1ccc(C=Nc2nccs2)cc1 [Compound 12, 4-((thiazol-2-ylimino)methyl)phenol] | Nil | Nil | Nil | 13.3 ± 1.2 | 10.3 ± 0.7 mm |  |  |  |  |
| Oc1ccccc1C=Nc1nccs1 [Compound 13, 2-((thiazol-2-ylimino)methyl)phenol] | 9 ± 0.8 mm | Nil | 11.3 ± 0.4 mm | 14.95 ± 0.5 | 9.6 ± 0.3 mm | showed growth inhibition |  | exhibited activities | exhibited activities |
| COc1ccc(C=Nc2nccs2)cc1 [Compound 14, N-(4-methoxybenzylidene)thiazol-2-amine] | Nil | Nil | 10.3 ± 0.4 mm | 12.3 ± 0.4 | Nil |  |  |  |  |
| COc1ccccc1C=Nc1nccs1 [Compound 15, N-(2-methoxybenzylidene)thiazol-2-amine] | Nil | Nil | Nil | 12.6 ± 0.5 | Nil |  |  |  |  |
| COc1ccc(C=Nc2nccs2)c(OC)c1 [Compound 16, N-(2,4-dimethoxy-benzylidene)-thiazol-2-yl-amine] | Nil | Nil | 12.3 ± 0.4 mm | 13 ± 0.4 | 13 ± 0.1 mm |  |  | exhibited activities | exhibited activities |
| COc1cccc(C=Nc2nccs2)c1OC [Compound 17, N-(2,3-dimethoxybenzylidene)thiazol-2-amine] | Nil | Nil | Nil | 10.95 ± 0.3 | 9.3 ± 0.4 mm |  |  |  |  |
| Cc1[nH]c2ccccc2c1C=Nc1nccs1 [Compound 18, N-((2-methyl-1H-indol-3-yl)methylene)thiazol-2-amine] | 14.6 ± 0.7 mm | Nil | 10 ± 0.2 mm | 16.2 ± 0.9 | 11.3 ± 0.4 mm | showed growth inhibition |  |  |  |
